{
  "source": "ChEMBL document CHEMBL5625208",
  "about": "“Tumor selective self-assembled nanomicelles of carbohydrate-epothilone B conjugate for targeted chemotherapy” (Eur J Med Chem, 2023)",
  "key": {"MCF7 [1]": {"tested_on": "MCF7", "experiment": "Antiproliferative activity against human MCF7 cells assessed as reduction in cell viability at 1 to 1000 nM preincubated for with NEM for 1 hr followed by compound addition and measured after 72 hrs by MTT assay", "format": "functional, cell-based", "details": "dose 1-1000 nM"}, "[2]": {"experiment": "Toxicity in mouse xenografted with human MCF7 cells assessed as reduction in body weight at 3 mg/kg, ip administered every 3 days for 3 times and measured after 14 days", "format": "organism-based", "details": "in vivo, 336 h, time 14 day"}, "[3]": {"experiment": "Toxicity in mouse xenografted with human MCF7 cells assessed as animal death at 3 mg/kg, ip administered every 3 days for 3 times and measured on day 8", "format": "organism-based", "details": "in vivo, 192 h, time 8 day"}, "MCF7 [4]": {"tested_on": "MCF7", "experiment": "Antitumor activity against human MCF7 cells xenografted in mouse assessed as appearance of intracellular space dilatation in tumor cells at 1.5 to 3 mg/kg, ip administered every 3 days for 3 times measured after 14 days by H and E staining based assay", "format": "functional, organism-based", "details": "dose 1.5-3 mg/kg, time 14.0 day"}, "MCF7 [5]": {"tested_on": "MCF7", "experiment": "Antitumor activity against human MCF7 cells xenografted in mouse assessed as appearance of small cavities in tumor cells at 1.5 to 3 mg/kg, ip administered every 3 days for 3 times measured after 14 days by H and E staining based assay", "format": "functional, organism-based", "details": "dose 1.5-3 mg/kg, time 14.0 day"}, "MCF7 [6]": {"tested_on": "MCF7", "experiment": "Antitumor activity against human MCF7 cells xenografted in mouse assessed as reduction in PCNA positive cells at 1.5 to 3 mg/kg, ip administered every 3 days for 3 times measured after 14 days by H and E staining based assay", "format": "functional, organism-based", "details": "dose 1.5-3 mg/kg, time 14.0 day"}, "[7]": {"experiment": "Prodrug release in DTT at pH 7.4 after 12 hrs by HPLC analysis", "format": "ADME", "details": "pH 7.4, 12 h"}, "[8]": {"experiment": "Prodrug release in DTT at pH 7.4 assessed as Epothilone B release after 12 hrs by HPLC analysis", "format": "ADME", "details": "pH 7.4, 12 h"}, "HepG2": {"tested_on": "HepG2", "experiment": "Antiproliferative activity against human HepG2 cells assessed as reduction in cell viability after 72 hrs by MTT assay", "format": "functional, cell-based"}, "NCI-H460": {"tested_on": "NCI-H460", "experiment": "Antiproliferative activity against human NCI-H460 cells assessed as reduction in cell viability after 72 hrs by MTT assay", "format": "functional, cell-based"}, "MCF7 [9]": {"tested_on": "MCF7", "experiment": "Antiproliferative activity against human MCF7 cells assessed as reduction in cell viability after 72 hrs by MTT assay", "format": "functional, cell-based"}, "NCI-460/Taxol": {"tested_on": "NCI-460/Taxol", "experiment": "Antiproliferative activity against human NCI-460/taxol cells assessed as reduction in cell viability after 72 hrs by MTT assay", "format": "functional, cell-based"}, "L02": {"tested_on": "L02", "experiment": "Cytotoxicity against human HL7702 cells incubated for 72 hrs by MTT assay", "format": "toxicity, cell-based", "details": "l02, 72 h"}, "BEAS-2B": {"tested_on": "BEAS-2B", "experiment": "Cytotoxicity against human BEAS-2B cells incubated for 72 hrs by MTT assay", "format": "toxicity, cell-based"}, "MCF7 [10]": {"tested_on": "MCF7", "experiment": "Antiproliferative activity against human MCF7 cells assessed as reduction in cell viability preincubated for with NEM for 1 hr followed by compound addition by xCELLigence real time analysis", "format": "functional, cell-based"}, "MCF7 [11]": {"tested_on": "MCF7", "experiment": "Antiproliferative activity against human MCF7 cells assessed as reduction in cell viability at 1 to 1000 nM preincubated for with rhamnose for 1 hr followed by compound addition and measured after 72 hrs by MTT assay", "format": "functional, cell-based", "details": "dose 1-1000 nM"}, "[12]": {"experiment": "Stability in mouse plasma", "format": "ADME, cell-free"}, "MCF7 [13]": {"tested_on": "MCF7", "experiment": "Antitumor activity against human MCF7 cells xenografted in mouse assessed as reduction in tumor growth at 3.2 to 6.4 mg/kg, ip administered every 3 days for 3 times and measured after 14 days", "format": "functional, organism-based", "details": "dose 3.2-6.4 mg/kg, time 14.0 day"}, "MCF7 [14]": {"tested_on": "MCF7", "experiment": "Antitumor activity against human MCF7 cells xenografted in mouse assessed as reduction in tumor weight at 3.2 to 6.4 mg/kg, ip administered every 3 days for 3 times and measured after 14 days", "format": "functional, organism-based", "details": "dose 3.2-6.4 mg/kg, time 14.0 day"}, "[15]": {"experiment": "Toxicity in mouse xenografted with human MCF7 cells at 3 mg/kg, ip administered every 3 days for 3 times and measured after 14 days", "format": "organism-based", "details": "in vivo, 336 h, time 14 day"}, "[16]": {"experiment": "Toxicity in mouse xenografted with human MCF7 cells assessed as animal death at 3.2 mg/kg, ip administered every 3 days for 3 times and measured after 14 days", "format": "organism-based", "details": "in vivo, 336 h, time 14 day"}, "[17]": {"experiment": "Toxicity in mouse xenografted with human MCF7 cells assessed as change in body weight at 3.2 mg/kg, ip administered every 3 days for 3 times and measured after 14 days", "format": "organism-based", "details": "in vivo, 336 h, time 14 day"}, "MCF7 [18]": {"tested_on": "MCF7", "experiment": "Antitumor activity against human MCF7 cells xenografted in mouse assessed as appearance of intracellular space dilatation in tumor cells at 3.2 to 6.4 mg/kg, ip administered every 3 days for 3 times measured after 14 days by H and E staining based assay", "format": "functional, organism-based", "details": "dose 3.2-6.4 mg/kg, time 14.0 day"}, "MCF7 [19]": {"tested_on": "MCF7", "experiment": "Antitumor activity against human MCF7 cells xenografted in mouse assessed as appearance of small cavities in tumor cells at 3.2 to 6.4 mg/kg, ip administered every 3 days for 3 times measured after 14 days by H and E staining based assay", "format": "functional, organism-based", "details": "dose 3.2-6.4 mg/kg, time 14.0 day"}, "MCF7 [20]": {"tested_on": "MCF7", "experiment": "Antitumor activity against human MCF7 cells xenografted in mouse assessed as reduction in PCNA positive cells at 3.2 to 6.4 mg/kg, ip administered every 3 days for 3 times measured after 14 days by H and E staining based assay", "format": "functional, organism-based", "details": "dose 3.2-6.4 mg/kg, time 14.0 day"}, "[21]": {"experiment": "Toxicity in mouse xenografted with human MCF7 cells assessed as spleen damage at 3.2 mg/kg, ip administered every 3 days for 3 times and measured after 14 days", "format": "organism-based", "details": "in vivo, 336 h, time 14 day"}, "[22]": {"experiment": "Toxicity in mouse xenografted with human MCF7 cells assessed as kidney damage at 3.2 mg/kg, ip administered every 3 days for 3 times and measured after 14 days", "format": "organism-based", "details": "in vivo, 336 h, time 14 day"}, "[23]": {"experiment": "Prodrug release in PBS at pH 7.4 assessed as Epothilone B release in presence of different concentrations of DTT by HPLC analysis", "format": "ADME", "details": "buffer"}},
  "note": "Active and inactive are the calls of the source. The calls are words filed in the database; no cut-off is given here.",
  "data": [
    {"molecule": "C/C(=C\\c1csc(C)n1)[C@@H]1C[C@@H]2O[C@]2(C)CCC[C@H](C)[C@H](O)[C@@H](C)C(=O)C(C)(C)[C@@H](O)CC(=O)O1", "note": "[PATUPILONE]", "values": [
      {"measurement": "Activity", "setting": "MCF7 [1]", "result": "Active"},
      {"measurement": "Activity", "setting": "[2]", "result": "Toxic"},
      {"measurement": "Activity", "setting": "[3]", "result": "Toxic"},
      {"measurement": "Activity", "setting": "MCF7 [4]", "result": "Active"},
      {"measurement": "Activity", "setting": "MCF7 [5]", "result": "Active"},
      {"measurement": "Activity", "setting": "MCF7 [6]", "result": "Active"}
    ]},
    {"molecule": "C/C(=C\\c1csc(C)n1)[C@@H]1C[C@@H]2O[C@]2(C)CCC[C@H](C)[C@H](OC(=O)Cc2ccccc2SSCCC(=O)NCc2cn(CCOCCOCCOCCO[C@@H]3O[C@@H](C)[C@H](O)[C@@H](O)[C@H]3O)nn2)[C@@H](C)C(=O)C(C)(C)[C@@H](O)CC(=O)O1", "values": [
      {"measurement": "Drug metabolism", "setting": "[7]", "result": "Active"},
      {"measurement": "Drug metabolism", "setting": "[8]", "result": "Not Active"}
    ]},
    {"molecule": "C/C(=C\\c1csc(C)n1)[C@@H]1C[C@@H]2O[C@]2(C)CCC[C@H](C)[C@H](OC(=O)OCCSSCCOCc2cn(CCOCCOCCOCCO[C@@H]3O[C@@H](C)[C@H](O)[C@@H](O)[C@H]3O)nn2)[C@@H](C)C(=O)C(C)(C)[C@@H](O)CC(=O)O1", "values": [
      {"measurement": "Activity", "setting": "HepG2", "result": "Active"},
      {"measurement": "Activity", "setting": "NCI-H460", "result": "Active"},
      {"measurement": "Activity", "setting": "MCF7 [9]", "result": "Active"},
      {"measurement": "Activity", "setting": "NCI-460/Taxol", "result": "Active"},
      {"measurement": "Activity", "setting": "L02", "result": "Non-Toxic"},
      {"measurement": "Activity", "setting": "BEAS-2B", "result": "Non-Toxic"},
      {"measurement": "Activity", "setting": "MCF7 [10]", "result": "inactive"},
      {"measurement": "Activity", "setting": "MCF7 [1]", "result": "inactive"},
      {"measurement": "Activity", "setting": "MCF7 [11]", "result": "inactive"},
      {"measurement": "Stability", "setting": "[12]", "result": "Stable"},
      {"measurement": "Activity", "setting": "MCF7 [13]", "result": "Active"},
      {"measurement": "Activity", "setting": "MCF7 [14]", "result": "Active"},
      {"measurement": "Activity", "setting": "[2]", "result": "Non-Toxic"},
      {"measurement": "Activity", "setting": "[15]", "result": "Non-Toxic"},
      {"measurement": "Activity", "setting": "[16]", "result": "Non-Toxic"},
      {"measurement": "Activity", "setting": "[17]", "result": "Non-Toxic"},
      {"measurement": "Activity", "setting": "MCF7 [18]", "result": "Active"},
      {"measurement": "Activity", "setting": "MCF7 [19]", "result": "Active"},
      {"measurement": "Activity", "setting": "MCF7 [20]", "result": "Active"},
      {"measurement": "Activity", "setting": "[21]", "result": "Non-Toxic"},
      {"measurement": "Activity", "setting": "[22]", "result": "Non-Toxic"},
      {"measurement": "Drug metabolism", "setting": "[7]", "result": "Active"},
      {"measurement": "Drug metabolism", "setting": "[8]", "result": "Active"},
      {"measurement": "Drug metabolism", "setting": "[23]", "result": "Not Active"}
    ]},
    {"molecule": "C/C(=C\\c1csc(C)n1)[C@@H]1C[C@@H]2O[C@]2(C)CCC[C@H](C)[C@H](OC(=O)OCCSSCCOCc2cn(CCOCCOCCOCCO[C@@H]3O[C@H](CO)[C@@H](O[C@@H]4O[C@@H](C)[C@H](O)[C@@H](O)[C@H]4O)[C@H](O)[C@H]3O[C@@H]3O[C@@H](C)[C@H](O)[C@@H](O)[C@H]3O)nn2)[C@@H](C)C(=O)C(C)(C)[C@@H](O)CC(=O)O1", "values": [
      {"measurement": "Activity", "setting": "HepG2", "result": "Active"},
      {"measurement": "Activity", "setting": "NCI-H460", "result": "Active"},
      {"measurement": "Activity", "setting": "MCF7 [9]", "result": "Active"},
      {"measurement": "Activity", "setting": "NCI-460/Taxol", "result": "Active"}
    ]}
  ]
}
